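A five-concentration, 48-hour dose response in 96-well plates underlies each endpoint, interpolated linearly between surrounding concentrations. TGI is the concentration that stops growth completely.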
Assays:
Assay in all cases: growth of human tumour cells (NCI), 48 h
[1] = tested on: NCI-H23 lung
[2] = tested on: OVCAR-4 ovarian
[3] = tested on: SK-OV-3 ovarian
[4] = tested on: CAKI-1 renal
[5] = tested on: MOLT-4 leukemia
[6] = tested on: HT29 colon
[7] = tested on: A498 renal
[8] = tested on: OVCAR-3 ovarian
[9] = tested on: DU-145 prostate
[10] = tested on: MDA-MB-231 breast
[11] = tested on: SF-295 CNS
[12] = tested on: M14 melanoma
[13] = tested on: UACC-257 melanoma
[14] = tested on: BT-549 breast
[15] = tested on: SW-620 colon
[16] = tested on: COLO 205 colon
[17] = tested on: SK-MEL-28 melanoma
[18] = tested on: SK-MEL-2 melanoma
[19] = tested on: 786-0 renal
[20] = tested on: PC-3 prostate
[21] = tested on: A549 NSCLC
[22] = tested on: HCT-15 colon
[23] = tested on: NCI-H460 lung
[24] = tested on: SK-MEL-5 melanoma
[25] = tested on: ACHN renal
[26] = tested on: HS 578T breast
[27] = tested on: NCI/ADR-RES ovarian
[28] = tested on: MDA-N
[29] = tested on: RPMI-8226 leukemia
[30] = tested on: HOP-92 NSCLC
[31] = tested on: NCI-H522 lung
[32] = tested on: UO-31 renal
[33] = tested on: IGROV1 ovarian
[34] = tested on: SN12C renal
[35] = tested on: MALME-3M melanoma
[36] = tested on: HCT-116 colon
[37] = tested on: SR leukemia
[38] = tested on: TK-10 renal
[39] = tested on: LOX IMVI melanoma
[40] = tested on: OVCAR-8 ovarian
[41] = tested on: SF-539 CNS
[42] = tested on: HOP-62 NSCLC
[43] = tested on: K-562 leukemia
[44] = tested on: T-47D breast
[45] = tested on: UACC-62 melanoma
[46] = tested on: MDA-MB-435
[47] = tested on: EKVX NSCLC
[48] = tested on: OVCAR-5 ovarian
[49] = tested on: SF-268 CNS
[50] = tested on: U251 CNS
[51] = tested on: KM12 colon
[52] = tested on: RXF 393 renal
[53] = tested on: HCC-2998 colon
[54] = tested on: MCF7 breast
[55] = tested on: NCI-H226 lung
[56] = tested on: SNB-19 CNS
[57] = tested on: CCRF-CEM leukemia
[58] = tested on: SNB-75 CNS
[59] = tested on: HL-60(TB) leukemia

C=CCSC1=N/C(=C\c2cccs2)C(=O)N1CC=C
TGI [1]: > 100 µM | TGI [2]: > 100 µM | TGI [3]: > 100 µM | TGI [4]: > 100 µM | TGI [5]: 62.2 µM | TGI [6]: > 100 µM | TGI [7]: 95.3 µM | TGI [8]: > 100 µM | TGI [9]: > 100 µM | TGI [10]: > 100 µM | TGI [11]: > 100 µM | TGI [12]: > 100 µM | TGI [13]: > 100 µM | TGI [14]: > 100 µM | TGI [15]: > 100 µM | TGI [16]: > 100 µM | TGI [17]: > 100 µM | TGI [18]: > 100 µM | TGI [19]: > 100 µM | TGI [20]: > 100 µM | TGI [21]: > 100 µM | TGI [22]: > 100 µM | TGI [23]: > 100 µM | TGI [24]: > 100 µM | TGI [25]: > 100 µM | TGI [26]: > 100 µM | TGI [27]: > 100 µM | TGI [28]: > 100 µM | TGI [29]: 91.3 µM | TGI [30]: 57 µM | TGI [31]: > 100 µM | TGI [32]: > 100 µM | TGI [33]: > 100 µM | TGI [34]: > 100 µM | TGI [35]: > 100 µM | TGI [36]: > 100 µM | TGI [37]: > 100 µM | TGI [38]: > 100 µM | TGI [39]: > 100 µM | TGI [40]: > 100 µM | TGI [41]: > 100 µM | TGI [42]: > 100 µM | TGI [43]: > 100 µM | TGI [44]: 69.3 µM | TGI [45]: > 100 µM | TGI [46]: > 100 µM | TGI [47]: 71.4 µM | TGI [48]: > 100 µM | TGI [49]: > 100 µM | TGI [50]: > 100 µM | TGI [51]: > 100 µM | TGI [52]: 64.2 µM | TGI [53]: > 100 µM | TGI [54]: > 100 µM | TGI [55]: > 100 µM | TGI [56]: > 100 µM

c1ccc(CNCCCCNCCCNCc2ccccc2)cc1
TGI [1]: 47.4 µM | TGI [2]: 38.2 µM | TGI [3]: > 100 µM | TGI [4]: 40.3 µM | TGI [5]: 33.2 µM | TGI [6]: 31 µM | TGI [8]: 54.7 µM | TGI [9]: 49.3 µM | TGI [10]: 33.2 µM | TGI [11]: > 100 µM | TGI [12]: 86.5 µM | TGI [13]: 32 µM | TGI [14]: 33.6 µM | TGI [15]: 31.8 µM | TGI [16]: 27.6 µM | TGI [17]: 31.2 µM | TGI [18]: > 100 µM | TGI [19]: 31.4 µM | TGI [20]: 28.8 µM | TGI [21]: 36.2 µM | TGI [22]: 39.4 µM | TGI [23]: 30.2 µM | TGI [24]: 32.5 µM | TGI [25]: 29.3 µM | TGI [26]: 29.7 µM | TGI [27]: > 100 µM | TGI [28]: 26.3 µM | TGI [29]: > 100 µM | TGI [30]: 25.3 µM | TGI [31]: 31 µM | TGI [32]: 52.4 µM | TGI [33]: 26.7 µM | TGI [34]: 36.4 µM | TGI [35]: 30.2 µM | TGI [36]: 32.2 µM | TGI [37]: 56.1 µM | TGI [38]: 77.4 µM | TGI [57]: 32.4 µM | TGI [39]: 32.7 µM | TGI [58]: 49.4 µM | TGI [42]: 60.8 µM | TGI [43]: 34.2 µM | TGI [44]: > 100 µM | TGI [45]: 32.4 µM | TGI [46]: 34.7 µM | TGI [47]: 57.3 µM | TGI [48]: > 100 µM | TGI [49]: 51.8 µM | TGI [50]: 35.7 µM | TGI [51]: 40.5 µM | TGI [52]: 32.7 µM | TGI [53]: 31.3 µM | TGI [54]: > 100 µM | TGI [55]: 41.4 µM | TGI [56]: 32.7 µM

COc1cc(OC)c(/C=C\c2cc(/C=C/c3c(OC)cc(OC)cc3OC)c3ccccc3[n+]2C)c(OC)c1
TGI [1]: 9.25 µM | TGI [2]: 36.4 µM | TGI [3]: > 48 µM | TGI [5]: 5.48 µM | TGI [6]: 5.93 µM | TGI [7]: 14 µM | TGI [8]: 6.17 µM | TGI [9]: 20.9 µM | TGI [10]: 10.2 µM | TGI [11]: 10.9 µM | TGI [12]: 12.7 µM | TGI [13]: 12.4 µM | TGI [14]: > 24.7 µM | TGI [59]: 5.62 µM | TGI [15]: > 36.3 µM | TGI [16]: 6.1 µM | TGI [17]: 10.9 µM | TGI [19]: 7.56 µM | TGI [20]: 11.5 µM | TGI [21]: > 41.7 µM | TGI [22]: > 47.4 µM | TGI [23]: 8.92 µM | TGI [24]: 2 µM | TGI [25]: 25.8 µM | TGI [26]: 97.9 µM | TGI [27]: > 100 µM | TGI [28]: 8.19 µM | TGI [30]: 8.08 µM | TGI [31]: 7.58 µM | TGI [32]: > 55.4 µM | TGI [33]: 38.3 µM | TGI [34]: 9.8 µM | TGI [35]: 4.52 µM | TGI [36]: > 28.3 µM | TGI [38]: > 49 µM | TGI [39]: 18.3 µM | TGI [58]: 14.2 µM | TGI [40]: 5.34 µM | TGI [41]: 5.93 µM | TGI [42]: 16.3 µM | TGI [44]: 7.11 µM | TGI [45]: 16.5 µM | TGI [46]: 6.43 µM | TGI [47]: 11.4 µM | TGI [48]: 57 µM | TGI [49]: 10.5 µM | TGI [50]: > 61.4 µM | TGI [51]: 10.4 µM | TGI [52]: 10.9 µM | TGI [53]: 14.5 µM | TGI [54]: > 39.8 µM | TGI [55]: 23.6 µM | TGI [56]: 40 µM

CCN(CC)CCNC(=O)c1cc2cc(NC(=O)c3cc4cc(NC(=O)c5cc6cc(N)ccc6[nH]5)ccc4[nH]3)ccc2[nH]1
TGI [1]: > 100 µM | TGI [2]: > 100 µM | TGI [3]: > 100 µM | TGI [4]: > 100 µM | TGI [5]: > 100 µM | TGI [6]: > 100 µM | TGI [7]: > 100 µM | TGI [8]: > 100 µM | TGI [9]: > 100 µM | TGI [10]: > 100 µM | TGI [11]: > 100 µM | TGI [12]: > 100 µM | TGI [13]: > 100 µM | TGI [14]: > 100 µM | TGI [15]: > 100 µM | TGI [16]: > 100 µM | TGI [17]: > 100 µM | TGI [18]: > 100 µM | TGI [19]: > 100 µM | TGI [20]: > 100 µM | TGI [21]: > 100 µM | TGI [22]: > 100 µM | TGI [23]: > 100 µM | TGI [24]: > 100 µM | TGI [25]: > 100 µM | TGI [26]: > 100 µM | TGI [27]: > 100 µM | TGI [28]: > 100 µM | TGI [29]: > 100 µM | TGI [30]: > 100 µM | TGI [31]: > 100 µM | TGI [32]: > 100 µM | TGI [33]: > 100 µM | TGI [34]: > 100 µM | TGI [35]: > 100 µM | TGI [37]: > 100 µM | TGI [38]: > 100 µM | TGI [57]: > 100 µM | TGI [39]: > 100 µM | TGI [58]: > 100 µM | TGI [40]: > 100 µM | TGI [42]: > 100 µM | TGI [43]: > 100 µM | TGI [44]: > 100 µM | TGI [45]: > 100 µM | TGI [46]: > 100 µM | TGI [47]: > 100 µM | TGI [48]: > 100 µM | TGI [49]: > 100 µM | TGI [50]: > 100 µM | TGI [51]: > 100 µM | TGI [52]: > 100 µM | TGI [53]: > 100 µM | TGI [55]: > 100 µM | TGI [56]: > 100 µM

Reference: PubChem BioAssay (NCI)
